Publication PMC3320733 (International Journal of Antimicrobial Agents, 2012)
Where no end group is shown, it is not given here.

Assays:
Assay type in all cases: cell-based
[1] = test system: Pseudomonas aeruginosa PAO1
Bacillus subtilis 168 = test system: Bacillus subtilis 168
human red blood cells = test: Haemolytic effects on human red blood cells; conditions: 1 h

Substance | MIC Pseudomonas aeruginosa [1] | MIC Bacillus subtilis (Bacillus subtilis 168) | HL50 (concentration at which 50% of red blood cells were lysed) (human red blood cells)
FFHHIFRGIVHVGKTIHRLVTG [Piscidin 1] [listing 1 of 2 here] | 50 µM | 12.5 µM | 
FFHHIFRGIVHVGKTIHRLVTG [Piscidin 1] [listing 2 of 2 here] |  |  | 20 µM
GLLGLLGSVVSHVVPAIVGHF-NH2 [Maculatin 1.3] [listing 1 of 2 here] | >100 µM | 25 µM | 
FFGKVLKLIRKIF-NH2 [DASamP1] | >100 µM | >100 µM | 25 µM
GLLGLLGSVVSHVVPAIVGHF-NH2 [Maculatin 1.3] [listing 2 of 2 here] |  |  | 25 µM
GFKDLLKGAAKALVKTVLF-NH2 [Ascaphin-8] | 12.5 µM | 6.25 µM | 45 µM
